Laboratory results reported in the NIST ThermoML archive (doi:10.1021/je200883w).

Details: 101.33 kPa, Liquid; for viscosity: Concentric cylinders viscometry; for mass density: Vibrating tube method

CCCCCCCCCCCCCC[P+](CCCCCC)(CCCCCC)CCCCCC.FC(F)(F)C(F)(F)[P-](F)(F)(F)(C(F)(F)C(F)(F)F)C(F)(F)C(F)(F)F
Details	mass density [kg/m3]	viscosity [mPa·s]
268.15 K	1207.4	3067.3
273.15 K	1203.2	2010
278.15 K	1198.9	1345.2
283.15 K	1194.6	928.39
288.15 K	1190.3	654.2
293.15 K	1186	471.76
298.15 K	1181.7	347.06
303.15 K	1177.6	260.12
308.15 K	1173.5	198.3
313.15 K	1169.4	153.61
318.15 K	1165.3	120.76
323.15 K	1161.3	96.23
328.15 K	1157.3	77.68
333.15 K	1153.3	63.45
338.15 K	1149.3	52.39
343.15 K	1145.3	43.71
348.15 K	1141.2	36.8
353.15 K	1137	31.27
358.15 K	1132.7	26.79
363.15 K	1128.7	23.12
368.15 K	1124.9	20.09
373.15 K	1121.1	17.57

COCC[N+]1(C)CCCC1.O=S(=O)([N-]S(=O)(=O)C(F)(F)F)C(F)(F)F
Details	mass density [kg/m3]	viscosity [mPa·s]
258.15 K	1494.1	620.3
263.15 K	1488.7	412.3
268.15 K	1483.6	286.4
273.15 K	1478.5	204.56
278.15 K	1473.7	149.89
283.15 K	1468.8	112.96
288.15 K	1464	87.14
293.15 K	1459.3	68.61
298.15 K	1454.7	55.06
303.15 K	1450	44.9
308.15 K	1445.2	37.15
313.15 K	1440.5	31.15
318.15 K	1435.9	26.43
323.15 K	1431.2	22.66
328.15 K	1426.6	19.59
333.15 K	1422	17.09
338.15 K	1417.4	15.03
343.15 K	1412.9	13.32
348.15 K	1408.2	11.88
353.15 K	1403.3	10.66
358.15 K	1398.6	9.617
363.15 K	1394.2	8.718
368.15 K	1389.9	7.94
373.15 K	1385.7	7.263

CCCC[N+]1(C)CCCC1.O=S(=O)([N-]S(=O)(=O)C(F)(F)F)C(F)(F)F
Details	mass density [kg/m3]	viscosity [mPa·s]
278.15 K	1412.9	230.3
283.15 K	1408.3	169.6
288.15 K	1403.8	128
293.15 K	1399.3	98.74
298.15 K	1394.9	77.65
303.15 K	1390.5	62.14
308.15 K	1386.1	50.52
313.15 K	1381.8	41.65
318.15 K	1377.4	34.78
323.15 K	1373	29.38
328.15 K	1368.7	25.07
333.15 K	1364.3	21.6
338.15 K	1360	18.77
343.15 K	1355.7	16.44
348.15 K	1351.4	14.5
353.15 K	1346.9	12.87
358.15 K	1342.5	11.5
363.15 K	1338.3	10.33
368.15 K	1334.3	9.32
373.15 K	1330.3	8.454

CCCC[N+]1(C)CCCC1.O=S(=O)([O-])C(F)(F)F [1-butyl-1-methylpyrrolidinium trifluoromethanesulfonate]
Details	mass density [kg/m3]	viscosity [mPa·s]
283.15 K	1263.6	414.9
288.15 K	1259.9	299.4
293.15 K	1256.1	221.7
298.15 K	1252.4	167.87
303.15 K	1248.7	129.71
308.15 K	1245.1	102.06
313.15 K	1241.5	81.62
318.15 K	1238	66.24
323.15 K	1234.4	54.48
328.15 K	1230.8	45.34
333.15 K	1227.3	38.16
338.15 K	1223.8	32.45
343.15 K	1220.3	27.84
348.15 K	1216.8	24.08
353.15 K	1213.3	21
358.15 K	1209.7	18.44
363.15 K	1205.9	16.29
368.15 K	1202.5	14.48
373.15 K	1199.2	12.95

CCCCn1cc[n+](C)c1C.O=S(=O)([N-]S(=O)(=O)C(F)(F)F)C(F)(F)F
Details	mass density [kg/m3]	viscosity [mPa·s]
273.15 K	1443.3	518.55
278.15 K	1438.4	353.44
283.15 K	1433.5	249.26
288.15 K	1428.7	180.5
293.15 K	1424	134.22
298.15 K	1419.4	102.19
303.15 K	1414.8	79.46
308.15 K	1410.1	62.97
313.15 K	1405.5	50.76
318.15 K	1401	41.53
323.15 K	1396.4	34.45
328.15 K	1391.8	28.91
333.15 K	1387.3	24.54
338.15 K	1382.8	21.03
343.15 K	1378.4	18.17
348.15 K	1373.9	15.83
353.15 K	1369.3	13.9
358.15 K	1364.4	12.3
363.15 K	1359.8	10.94
368.15 K	1355.5	9.794
373.15 K	1351.3	8.813

CCOS(=O)(=O)[O-].CCn1cc[n+](C)c1 [1-ethyl-3-methylimidazolium ethyl sulfate]
Details	mass density [kg/m3]	viscosity [mPa·s]
253.15 K	1270.6	3146.4
258.15 K	1266.9	1789.6
263.15 K	1263.3	1094.4
268.15 K	1259.5	700.85
273.15 K	1255.7	466.03
278.15 K	1252	321.37
283.15 K	1248.3	229.15
288.15 K	1244.8	168.31
293.15 K	1241.3	126.89
298.15 K	1237.8	97.84
303.15 K	1234.4	77.01
308.15 K	1231	61.71
313.15 K	1227.6	50.25
318.15 K	1224.2	41.51
323.15 K	1220.8	34.73
328.15 K	1217.4	29.4
333.15 K	1214	25.15
338.15 K	1210.6	21.72
343.15 K	1207.2	18.91
348.15 K	1203.8	16.6
353.15 K	1200.4	14.68
358.15 K	1197.2	13.06
363.15 K	1194.1	11.69
368.15 K	1191.1	10.52
373.15 K	1188.2	9.518

CCCCCCOS(=O)(=O)[O-].CC[n+]1ccn(C)c1 [3-ethyl-1-methyl-1H-imidazolium hexyl sulfate]
Details	mass density [kg/m3]	viscosity [mPa·s]
268.15 K	1151.4	3425.9
273.15 K	1147.9	2124.1
278.15 K	1144.4	1362.1
283.15 K	1140.9	904.77
288.15 K	1137.4	620.25
293.15 K	1133.8	437.53
298.15 K	1130.4	316.78
303.15 K	1127	234.83
308.15 K	1123.7	177.81
313.15 K	1120.5	137.23
318.15 K	1117.2	107.82
323.15 K	1114	86.06
328.15 K	1110.8	69.71
333.15 K	1107.6	57.21
338.15 K	1104.4	47.52
343.15 K	1101.2	39.91
348.15 K	1097.9	33.86
353.15 K	1094.5	29
358.15 K	1091.2	25.04
363.15 K	1088.1	21.8
368.15 K	1085.1	19.11
373.15 K	1082.3	16.87

CCCC[N+]1(C)CCCC1.FC(F)(F)C(F)(F)[P-](F)(F)(F)(C(F)(F)C(F)(F)F)C(F)(F)C(F)(F)F
Details	mass density [kg/m3]	viscosity [mPa·s]
283.15 K	1599.8	593.7
288.15 K	1594.2	409.8
293.15 K	1588.6	291.5
298.15 K	1583.2	213.1
303.15 K	1577.9	159.61
308.15 K	1572.6	122.18
313.15 K	1567.4	95.36
318.15 K	1562.1	75.75
323.15 K	1556.9	61.13
328.15 K	1551.7	50.03
333.15 K	1546.6	41.48
338.15 K	1541.5	34.79
343.15 K	1536.3	29.49
348.15 K	1531.1	25.24
353.15 K	1525.7	21.79
358.15 K	1520.4	18.97
363.15 K	1515.3	16.63
368.15 K	1510.4	14.68
373.15 K	1505.5	13.04
